# Experimental data from patent publication US7261876B2, “Multivalent constructs for therapeutic and diagnostic applications” (Bracco International BV, priority 2002, dated 2007).
# Entries after “also recorded” stand apart in the source; their conditions may differ. No end group written: not given here.
# How the values were obtained:
# [1] = tested on: SW-480 human colon carcinoma cells; test: In vivo xenograft tumor model; details: Study Day 22; 6.0 mg/kg IV, five doses
# Method: Female athymic nude mice (Crl:NU/NU-nuBR) at 6–8 weeks of age were used in this study. […] Test compound and vehicle were administered intraperitoneally (IP), Cisplatin was administered intravenously (IV). Tumor measurements were recorded twice weekly using hand-held calipers. Mice were monitored daily for signs of toxicity and morbidity. At study termination, animals were euthanized by carbon dioxide overdose and necropsied for tissue collection.
# A total of nine (9) groups were used in this study. Each group contained ten (10) tumor-bearing mice. Groups 1 and 2 contained untreated and vehicle treated negative control mice, respectively. […] Group 9 contained mice that received cisplatin, a standard chemotherapeutic compound as a positive control.
# Dosing began the same day that animals were randomly sorted into groups (Study Day 7). Each dose was removed from the dose vial using aseptic technique for each animal and the injection site was wiped with an alcohol swab prior to dose administration. […]
# Clinical Observations of each animal were performed and recorded at least once daily for toxicity, morbidity and mortality. […]
# In accordance with the protocol, tumor measurements were taken twice weekly throughout the study by measuring the length and width of tumors with calibrated calipers. […] Tumor weights were calculated using the following formula: mg=(L×W^2)/2. […]
# HUVECs = test: Endothelial cell proliferation assay, BrdU detection; format: cell-based, human; details: 10 μg/mL, in the presence of VEGF (30 ng/mL)
# Method: Briefly, freshly isolated HUVECs (between p3–6) were cultured in RPMI+10% FCS+1% antibiotics+1% 1-glutamin+0.4% BBE (bovine brain extract) and seeded per well, 5000–10000/well in 100 μL. The cells were allowed to recover for 24 h prior to use. Then the cells were washed with PBS twice and treated for 48 h with anti-VEGF antibody (positive control) or peptides A, B and C (0.1 and 10 ug/mL) in RPMI+0.1% BSA+1% 1-glutamin. The following 6 variables were tested in 2 series (n=4): • Series I: w/o VEGF • Series II: w/VEGF (30 ng/mL) • 1. Standard medium: RPMI+10% FCS+1% antibiotics+1% 1-glutamin+0.4% BBE • 2. Negative control 1: RPMI (true starvation) • 3. Negative control 2: RPMI+0.1% BSA+1% 1-glutamin • 1. Positive control: anti-VEGF 10 μg/ml in RPMI+0.1% BSA+1% 1-glutamin • 5. 0.1 μg/ml KDR peptides in RPMI+0.1% BSA+1% 1-glutamin • 6. […] Note: Background binding was determined by omitting the anti-BrdU antibody in 4 wells with control cells (cultured in complete medium; EBM+BulletKit) and by complete labeling of cells that was not exposed to BrdU.
# [2] = tested on: VEGF-induced migration of HUVECs; test: HUVEC migration/invasion assay; format: cell-based, human
# [3] = biological target: T1, KDR-transfected 293H cells (Homo sapiens, UniProt P35968); test: Binding of peptide-conjugated microbubbles to KDR-transfected cells; format: cell-based
# T1 construct: Both PCR products were digested with Not1 and ligated together to create the full-length receptor; V5-His (encoded by the vector); expressed in transfected cells; host or cells: 293H cells (Invitrogen cat. # 11631), transient lipofectamine 2000 transfection
# Method: 293H cells were transfected with KDR cDNA. […] Competition was also performed using a non-binding control peptide as a competing compound.
# 293H cells were transfected with KDR cDNA.
# D23 (a dimeric construct of P6- and P12-derived sequences) was conjugated with a preparation of microbubbles as above described, according to the following methodology. The thioacetylated peptide ([…]) was dissolved in 20 μl DMSO and then diluted in 1 ml of Phosphate Buffer Saline (PBS). This solution was mixed to the N-MPB-functionalized microbubbles dispersed in 18 ml of PBS-EDTA 10 mM, pH 7.5 and 2 ml of deacetylation solution (50 mM sodium phosphate, 25 mM EDTA, 0.5 M hydroxylamine.HCl, pH 7.5) was added. The headspace was filled with C4F10/Air (50/50) and the mixture was incubated for 2.5 hours at room temperature under gentle agitation (rotating wheel), in the dark. Conjugated bubbles were washed by centrifugation. Similarly, the monomer peptides making up D23 were separately conjugated to two different microbubble preparations according to the methodology described above.
# KDR/VEGF complex = biological target: T2, KDR/VEGF complex (Homo sapiens, UniProt P35968); test: Cell based assay for binding of KDR/VEGF complex binders (peptide-125I-streptavidin complexes); details: in the presence of VEGF
# T2 construct: Both PCR products were digested with Not1 and ligated together to create the full-length receptor; V5-His (encoded by the vector); expressed in transfected cells; host or cells: 293H cells, transiently transfected; VEGF added exogenously
# Description: Furthermore, these peptides, as well as other peptides which bind KDR/VEGF complex may advantageously be included in heteromultimers of the invention.
# [4] = biological target: T3, KDR-expressing 293H cells (Homo sapiens, UniProt P35968); test: Bead-binding assay, peptide-conjugated fluorescent beads; format: cell-based; details: Neutravidin-coated beads, 40% FBS
# T3 construct: Both PCR products were digested with Not1 and ligated together to create the full-length receptor; V5-His (encoded by the vector); expressed in transfected cells; host or cells: 293H cells (Invitrogen cat. # 11631), transient lipofectamine 2000 transfection
# Method: As a positive control, biotinylated anti-KDR antibody was incubated with the Neutravidin-coated beads as above, except that 0.03 mg of the biotinylated antibody preparation in PBS (Gibco 14190-136) was used instead of peptide solution. Beads can be stored at 4° C. until needed for up to 1 week.
# 293H cells were transfected using the protocol described in Example 6. Transfection was done in black/clear 96-well plates (Becton Dickinson, cat. # 354640). The cells in one half of the plate (48 wells) were mock-transfected (with no DNA) and those in the other half of the plate were transfected with KDR cDNA. The cells were 80–90% confluent at the time of transfection and completely confluent the next day, at the time of the assay; otherwise the assay was aborted.
# From the above bead preparations, 0.12 mL was spun for 10 minutes at 2000 rpm in a microcentrifuge at room temperature. The supernatant was removed and 0.06 mL of MES pH 6.0 was added. Each bead solution was then vortexed and sonicated in a water bath 15 min. To 1.47 mL of DMEM, high glucose (GIBCO 11965-084) with 1×MEM Non-Essential Amino Acids Solution (NEAA) (GIBCO 11140-050) and 40% FBS (Hyclone SH30070.02) 0.03 mL of the sonicated bead preparations was added. 96-well plates seeded with 293H cells which have been mock-transfected in columns 1 to 6, and KDR-transfected in columns 7 to 12 (as described above), were drained and washed once with DMEM, high glucose with 1×NEAA and 40% FBS. To each well was added 0.1 mL of bead solution, six wells per bead preparation. […] After draining, 0.1 mL of PBS was added per well. The plates were then read on a Packard FluoroCount fluorometer at excitation 550 nm/emission 620 nm. Unconjugated Neutravidin beads were used as a negative control while beads conjugated with a biotinylated anti-KDR antibody were used as the positive control for the assay.
# To calculate the number of beads bound per well, a standard curve with increasing numbers of the same fluorescent beads was included in each assay plate. The standard curve was used to calculate the number of beads bound per well based on the fluorescence intensity of each well.
# [5] = biological target: T4, KDR expressed by transfected 293H cells (Homo sapiens, UniProt P35968); test: Competition with 125I-labeled VEGF for binding to KDR-transfected 293H cells
# T4 construct: Both PCR products were digested with Not1 and ligated together to create the full-length receptor; V5-His (encoded by the vector); expressed in transfected cells; host or cells: 293H cells (Invitrogen cat. # 11631), transient lipofectamine 2000 transfection
# Method: Once prepared, the solutions were kept on ice until ready to use.
# Cells were used 24 h after transfection, and to prepare the cells for the assay, they were washed 3 times with room temperature M199 medium and placed in the refrigerator. […] After incubating at 4° C. for 2 h, the plates were washed 5 times with cold binding buffer, gently blotted dry and checked under a microscope for cell loss. 100 μL of solubilizing solution (2% Triton X-100, 10% Glycerol, 0.1% BSA) was added to each well and the plates were incubated at room temperature for 30 minutes. The solubilizing solution in each well was mixed by pipeting up and down, and transferred to 1.2 mL tubes. Each well was washed twice with 100 μL of solubilizing solution and the washes were added to the corresponding 1.2 mL tube.
# After washing the cells, the bound radioactivity was quantitated on a gamma counter.
# KDR transfected cells = biological target: T5, KDR transfected cells (Homo sapiens, UniProt P35968); test: Competition of free peptides with P5-XB/avidin HRP complex (Experiment E); format: binding; details: P5-XB/avidin HRP 3.33 nM; free peptide 0–[…]
# T5 construct: Both PCR products were digested with Not1 and ligated together to create the full-length receptor; V5-His (encoded by the vector); expressed in transfected cells; host or cells: 293H cells (Invitrogen cat. # 11631), transient lipofectamine 2000 transfection
# Description: If the peptides bind to the same site on KDR, they would likely compete with each other for binding to KDR, whereas if the peptides bind to different sites, there should be no competition between the peptides for binding to KDR.
# KDR-expressing cells = biological target: T6, KDR-expressing cells (Homo sapiens, UniProt P35968); test: Displacement assay competing with P12-XB/streptavidin-HRP complex for binding to KDR-expressing cells; details: complex concentration 5.5 nM
# T6 construct: Both PCR products were digested with Not1 and ligated together to create the full-length receptor; V5-His (encoded by the vector); expressed in transfected cells; host or cells: 293H cells (Invitrogen cat. # 11631), transient lipofectamine 2000 transfection
# Method: After determining the specific binding under each experimental condition, the IC50 for each peptide was determined (where possible).
# [6] = biological target: T1, KDR-transfected 293H cells; test: Binding of radiolabeled (Tc, I, Lu) peptides to KDR-transfected 293H cells
# T4 sequence (P35968 20-1356): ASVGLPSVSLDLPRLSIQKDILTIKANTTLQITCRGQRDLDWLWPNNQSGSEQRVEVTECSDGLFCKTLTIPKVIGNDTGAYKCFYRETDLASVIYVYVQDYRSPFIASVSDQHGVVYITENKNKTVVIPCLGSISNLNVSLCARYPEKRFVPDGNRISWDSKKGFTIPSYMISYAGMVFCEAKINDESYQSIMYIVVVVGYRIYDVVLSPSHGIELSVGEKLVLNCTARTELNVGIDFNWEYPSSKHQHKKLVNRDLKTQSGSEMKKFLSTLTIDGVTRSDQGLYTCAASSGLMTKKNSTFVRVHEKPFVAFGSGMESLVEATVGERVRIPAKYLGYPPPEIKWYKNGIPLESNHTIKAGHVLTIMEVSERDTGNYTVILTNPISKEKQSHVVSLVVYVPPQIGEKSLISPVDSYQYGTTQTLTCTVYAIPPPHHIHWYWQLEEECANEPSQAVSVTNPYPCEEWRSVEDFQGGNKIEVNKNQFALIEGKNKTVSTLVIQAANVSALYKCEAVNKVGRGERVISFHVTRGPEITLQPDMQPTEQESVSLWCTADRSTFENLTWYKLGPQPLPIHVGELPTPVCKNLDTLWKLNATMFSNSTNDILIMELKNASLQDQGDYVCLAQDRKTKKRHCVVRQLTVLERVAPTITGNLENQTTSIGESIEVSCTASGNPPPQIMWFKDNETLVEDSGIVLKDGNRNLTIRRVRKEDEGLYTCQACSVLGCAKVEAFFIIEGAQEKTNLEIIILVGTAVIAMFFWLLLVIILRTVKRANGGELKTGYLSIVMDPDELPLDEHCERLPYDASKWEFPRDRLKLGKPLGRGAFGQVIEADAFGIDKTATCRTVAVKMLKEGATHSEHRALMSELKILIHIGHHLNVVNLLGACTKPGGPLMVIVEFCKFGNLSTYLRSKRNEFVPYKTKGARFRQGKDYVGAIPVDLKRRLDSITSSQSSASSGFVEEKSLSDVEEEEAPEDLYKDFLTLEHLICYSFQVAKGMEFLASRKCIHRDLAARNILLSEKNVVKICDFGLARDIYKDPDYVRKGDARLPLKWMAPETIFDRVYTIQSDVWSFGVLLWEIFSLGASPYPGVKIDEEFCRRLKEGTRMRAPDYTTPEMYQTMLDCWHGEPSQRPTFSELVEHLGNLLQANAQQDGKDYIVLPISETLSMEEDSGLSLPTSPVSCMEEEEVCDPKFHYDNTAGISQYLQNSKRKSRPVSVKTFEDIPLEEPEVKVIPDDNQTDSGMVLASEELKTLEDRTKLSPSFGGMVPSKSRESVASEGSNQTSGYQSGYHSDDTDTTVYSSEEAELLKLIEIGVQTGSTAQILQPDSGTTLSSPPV
# T1 sequence (P35968 20-1356): as above
# T2 sequence (P35968 20-1356): as above
# T2 sequence (P15692 27-191 isoform P15692-4 partner): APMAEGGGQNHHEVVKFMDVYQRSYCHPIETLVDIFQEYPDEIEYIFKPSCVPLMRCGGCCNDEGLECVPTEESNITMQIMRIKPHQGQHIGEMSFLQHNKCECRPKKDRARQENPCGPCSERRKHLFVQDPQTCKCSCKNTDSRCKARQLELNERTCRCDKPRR
# T3 sequence (P35968 20-1356): as the sequence (P35968 20-1356) above
# T5 sequence (P35968 20-1356): as above
# T6 sequence (P35968 20-1356): as above
molecule,measurement,setting,value
N.N.[Cl][Pt][Cl] [Cisplatin],mean tumor weight,[1],995 mg
"CC(=O)N[C@@H](C)C(=O)NCC(=O)N1CCC[C@H]1C(=O)N[C@H](C(=O)N[C@@H](Cc1c[nH]c2ccccc12)C(=O)N[C@H]1CSSC[C@@H](C(=O)N[C@@H](Cc2c[nH]c3ccccc23)C(=O)N[C@@H](CC(C)C)C(=O)N[C@@H](Cc2ccccc2)C(=O)NCC(=O)N[C@H](C(=O)NCC(=O)NCC(=O)NCC(=O)N[C@@H](CCCCN)C(N)=O)[C@@H](C)O)NC(=O)[C@H](Cc2ccc(O)cc2)NC(=O)[C@H](Cc2ccc(O)cc2)NC(=O)[C@H](Cc2c[nH]c3ccccc23)NC(=O)[C@H](CC(=O)O)NC(=O)[C@H](CC(=O)O)NC(=O)[C@H](CCC(=O)O)NC1=O)[C@@H](C)O [P12-G, Ac-AGPTWC*EDDWYYC*WLFGT-GGGK-NH2]",inhibition of HUVEC proliferation,HUVECs,does not inhibit proliferation
"CC(C)c1cc(/C=C(\C#N)C(=O)NCCCc2ccccc2)cc(C(C)C)c1O [SU1498, (E)-3-(3,5-Diisopropyl-4-hydroxyphenyl)-2-[(3-phenyl-n-propyl)aminocarbonyl]acrylonitrile]",VEGF-induced migration blocked,[2]; 3 micromolar,47%
AGPTWCEDDWYYCWLFGT [P12],competition of conjugated microbubbles by free peptide,"[3]; Experiment A, free peptide 100 μM to 3 nM",competed off by the corresponding free KDR-specific peptide
Ac-AGMPWCVEKDHWDCWWWGTGGGK(Biotin-JJ)-NH2 [P31-XB],specific binding of peptide-125I-streptavidin complex (KDR-mock),KDR/VEGF complex,Only the complex containing P30-XB showed specific binding
Ac-AGPGPCKGYMPHQCWYMGTGGGK(Biotin-JJ)-NH2 [P30-XB],specific binding of peptide-125I-streptavidin complex (KDR-mock),KDR/VEGF complex,specifically bound to KDR-transfected 293H cells; also recorded: showed specific binding
Ac-AGPKWC*EEDWYYC*MITGT-GGGK-(Biotin)-NH2 [P5-B],binding of ligand-coated fluorescent beads to KDR-transfected vs mock-transfected cells,[4],did not bind to the KDR-transfected cells significantly more than to mock-transfected cells
Ac-AGPKWC*EEDWYYC*MITGTGGGK-(Biotin-JJ-)-NH2 [P5-XB],binding of ligand-coated fluorescent beads to KDR-transfected vs mock-transfected cells,[4],Specific binding to KDR was detected
same,percentage inhibition of 125I-labeled VEGF binding,[5]; 0.3 μM peptide,24.41±8.43%
same,percentage inhibition of 125I-labeled VEGF binding,[5]; 30 μM peptide,47.95±5.09%
same,competition with P5-XB/avidin HRP solution for binding,KDR transfected cells,does compete
Ac-AGYGPCKNMPPWMCWHEGTGGGK(Biotin-JJ)-NH2 [P32-XB],specific binding of peptide-125I-streptavidin complex (KDR-mock),KDR/VEGF complex,Only the complex containing P30-XB showed specific binding
Ac-DWYYGGGK-NH2 [F1],inhibition of P12-XB streptavidin-HRP complex binding,KDR-expressing cells,IC50 below one micromolar
"Ac-ERVTTCWPGEYGGVECYSVAY-NH2 (cysteine pairing not given here) [PG-1, reference compound]",competition with 125I-VEGF for binding to KDR-transfected cells,[5],competed about equally well
same,VEGF-stimulated migration,[2]; up to 62.5 nM,had no effect on VEGF-stimulated migration
Ac-GDSRVC*WEDSWGGEVC*FRYDP-GGGK-(Biotin)-NH2 [P6-B],binding of ligand-coated fluorescent beads to KDR-transfected vs mock-transfected cells,[4],showed greater binding to KDR-transfected cells
Ac-GDSRVC*WEDSWGGEVC*FRYDPGGGK-(Biotin-JJ-)-NH2 [P6-XB],competition with P5-XB/avidin HRP solution for binding,KDR transfected cells,do not compete
GDSRVCWEDSWGGEVCFRYDP [P6],binding of ligand-coated fluorescent beads to KDR-transfected vs mock-transfected cells,[4],Specific binding to KDR was detected
same,binding of conjugated microbubbles,"[3]; Experiment C, 50% human serum",bound poorly
"Tc-labeled D18: 99mTc-labeled scrambled dimer D18 (peptide 1 APGTWCDYDWEYCWLGTFGGGK; peptide 2 GVDFRCEWSDWGEVGCRSPDYGGGK; not fully specified (bridges); cysteine pairing not given here; also: 99mTc label, site not given here, heterodimer, linkage not given here)",binding of radiolabeled compound to KDR transfected vs mock transfected 293H cells,[6],displayed no affinity for either mock-transfected or KDR-transfected 293H cells
